According to patent US12180192B2, “Modulators of THR-β and methods of use thereof” (ALIGOS THERAPEUTICS, INC., priority 2019, dated 2024):
Read-outs that look alike come from different tables or passages of the source.

Assays:
[1] = target: T1, THR alpha (Homo sapiens, UniProt P10827); assay: HEK293T THR alpha/RXR luciferase reporter assay (Assay 2); format: cell-based; details: for Emax: HEK-293T
T1 construct: expressed in transfected cells; host or cells: HEK293T (ATCC CRL-3216)
T1 sequence (P10827 1-410 isoform P10827-2): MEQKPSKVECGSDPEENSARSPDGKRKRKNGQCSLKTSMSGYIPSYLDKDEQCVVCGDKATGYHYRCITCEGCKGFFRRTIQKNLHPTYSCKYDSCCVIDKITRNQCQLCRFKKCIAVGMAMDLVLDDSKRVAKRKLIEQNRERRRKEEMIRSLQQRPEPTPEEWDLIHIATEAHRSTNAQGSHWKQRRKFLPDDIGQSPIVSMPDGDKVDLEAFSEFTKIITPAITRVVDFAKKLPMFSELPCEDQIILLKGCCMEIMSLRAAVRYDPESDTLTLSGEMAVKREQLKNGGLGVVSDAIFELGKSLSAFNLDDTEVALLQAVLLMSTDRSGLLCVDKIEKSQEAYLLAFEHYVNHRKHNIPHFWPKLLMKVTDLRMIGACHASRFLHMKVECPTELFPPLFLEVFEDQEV
T1 sequence (P19793 1-462 partner): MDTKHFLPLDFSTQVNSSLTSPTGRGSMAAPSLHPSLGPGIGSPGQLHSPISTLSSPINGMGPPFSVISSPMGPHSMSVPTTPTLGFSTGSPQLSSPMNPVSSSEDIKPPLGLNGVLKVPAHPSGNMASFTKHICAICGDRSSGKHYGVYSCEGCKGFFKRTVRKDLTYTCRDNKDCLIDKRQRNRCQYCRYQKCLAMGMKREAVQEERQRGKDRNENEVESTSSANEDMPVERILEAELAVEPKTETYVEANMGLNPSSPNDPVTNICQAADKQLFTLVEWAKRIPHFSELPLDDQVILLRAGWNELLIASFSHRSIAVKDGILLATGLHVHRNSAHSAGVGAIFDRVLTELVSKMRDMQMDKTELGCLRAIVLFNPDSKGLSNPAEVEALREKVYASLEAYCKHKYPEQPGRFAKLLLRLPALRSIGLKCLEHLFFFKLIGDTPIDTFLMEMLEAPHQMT
How it was run: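 HEK293T cells transiently transfected with TRE-luciferase reporter, RXR, and THR alpha or THR beta plasmid; ten five-fold compound dilutions from DMSO added for 18-24 h. One-Glo luminescence read; percent agonism normalized between negative and positive controls.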

[2] = target: T2, human thyroid receptor beta ligand-binding domain (LBD) (Homo sapiens, UniProt P10828); assay: TR-FRET thyroid receptor beta coactivator assay (THR biochemical assay, Assay 1); details: for EC50: THR-beta, TR-FRET coactivator assay, read-out: Activity category Assay 1 (EC50, THR-beta agonist); for Emax: read-out: Activity category Assay 1 THRβ (Emax)
T2 construct: purchased Invitrogen
T2 sequence (P10828 217-461 limits assumed): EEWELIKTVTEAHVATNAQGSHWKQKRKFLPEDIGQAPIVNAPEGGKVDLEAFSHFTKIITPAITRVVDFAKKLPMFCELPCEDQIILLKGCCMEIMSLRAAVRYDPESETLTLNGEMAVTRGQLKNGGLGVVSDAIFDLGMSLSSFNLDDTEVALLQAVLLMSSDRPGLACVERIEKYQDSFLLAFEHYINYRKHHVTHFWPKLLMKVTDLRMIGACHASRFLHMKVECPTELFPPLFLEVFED
How it was run: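 GST-tagged human TRβ or TRα LBD, 1 nM final (stated for β), with fluorescein-SRC2-2 coactivator peptide (200 nM) and Tb-anti-GST antibody (2 nM). Agonists serially diluted, 1% DMSO final. 1 h incubation at rt in the dark; TR-FRET read as rise in fluorescein and drop in terbium emission.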

[3] = Table 5, Assay 2, THRα, read-out: Activity category Assay 2 THRα (Emax)
[4] = Table 4, THR-alpha, Assay 2, read-out: Activity category Assay 2 (EC50, THR-alpha agonist activity)

SMILES	Emax [1, 3] [%]	EC50 [1, 4] [nM]	EC50 [2] [nM]	Emax ([2]; Table 5, Assay 1, THRβ) [%]	EC50 ([1]; HEK293T reporter THRalpha/RXR, read-out: EC50 α) [nM]	Emax ([1]; HEK293T reporter THRalpha/RXR, read-out: percent in parentheses below EC50 α (percent agonism / Emax)) [%]	Activity category Assay 2 THRα (Emax) ([1]; Table 5, Assay 2, THRα)	Activity category Assay 1 THRβ (Emax) ([2]; Table 5, Assay 1, THRβ)
CC(C)c1cc(Oc2c(Cl)cc(-c3nn(C)c(=O)[nH]c3=O)cc2Cl)n[nH]c1=O [Compound 16, 6-[3,5-dichloro-4-[(5-isopropyl-6-oxo-1H-pyridazin-3-yl)oxy]phenyl]-2-methyl-4H-1,2,4-triazine-3,5-dione]	> 75	250 to 1000	50 to 250	50 to 75				
Nc1nn(-c2cc(Cl)c(Oc3cc(C4CCC4)c(=O)[nH]n3)c(Cl)c2)c(=O)[nH]c1=O [Compound 40, 6-amino-2-[3,5-dichloro-4-[(5-cyclobutyl-6-oxo-1H-pyridazin-3-yl)oxy]phenyl]-4H-1,2,4-triazine-3,5-dione]	> 75	250 to 1000	< 50	50 to 75	564	95		
Nc1nn(-c2cc(Cl)c(Oc3n[nH]c(=O)cc3-c3ccc4ccccc4c3)c(Cl)c2)c(=O)[nH]c1=O [Compound 67-A, 6-amino-2-(3,5-dichloro-4-((4-(naphthalen-2-yl)-6-oxo-1,6-dihydropyridazin-3-yl)oxy)phenyl)-1,2,4-triazine-3,5(2H,4H)-dione]	< 50	1000 to 10000	< 50	< 50				
Cc1ccc(-c2cc(Oc3c(Cl)cc(-n4nc(N)c(=O)[nH]c4=O)cc3Cl)n[nH]c2=O)cc1C [Compound 112]	< 50	1000 to 10000	50 to 250	< 50				
Nc1nn(-c2cc(Cl)c(Oc3cc(C4Cc5ccccc54)c(=O)[nH]n3)c(Cl)c2)c(=O)[nH]c1=O (centres unmarked) [Compound 158]	< 50	1000 to 10000	< 50	< 50				
Nc1nn(-c2cc(Cl)c(Oc3n[nH]c(=O)cc3-c3ccc4c(c3)CCCO4)c(Cl)c2)c(=O)[nH]c1=O [Compound 115]	< 50	> 10000	50 to 250	< 50				
Cc1cc(-n2nc(C#N)c(=O)[nH]c2=O)cc(C)c1Cc1ccc2c(c1)C1(CC1)C(=O)N2 [Compound 148, 2-(3,5-dimethyl-4-((2′-oxospiro[cyclopropane-1,3′-indolin]-5′-yl)methyl)phenyl)-3,5-dioxo-2,3,4,5-tetrahydro-1,2,4-triazine-6-carbonitrile]	< 50	1000 to 10000	< 50	< 50				
Cc1cc(-n2nc(C#N)c(=O)[nH]c2=O)cc(C)c1Cc1ccc2[nH]c(=O)cc(C(C)C)c2c1 [Compound 90, 2-(4-((4-Isopropyl-2-oxo-1,2-dihydroquinolin-6-yl)methyl)-3,5-dimethylphenyl)-3,5-dioxo-2,3,4,5-tetrahydro-1,2,4-triazine-6-carbonitrile]	< 50	> 10000	< 50	< 50				

Second part, the compound after the results:

Emax [1, 3] [%]	EC50 [1, 4] [nM]	EC50 [2] [nM]	Emax ([2]; Table 5, Assay 1, THRβ) [%]	EC50 ([1]; HEK293T reporter THRalpha/RXR, read-out: EC50 α) [nM]	Emax ([1]; HEK293T reporter THRalpha/RXR, read-out: percent in parentheses below EC50 α (percent agonism / Emax)) [%]	Activity category Assay 2 THRα (Emax) ([1]; Table 5, Assay 2, THRα)	Activity category Assay 1 THRβ (Emax) ([2]; Table 5, Assay 1, THRβ)	SMILES
< 50	50 to 250	50 to 250	< 50					Nc1nn(-c2cc(Cl)c(Oc3cc(C45CCC(C4)C5)c(=O)[nH]n3)c(Cl)c2)c(=O)[nH]c1=O [Compound 101]
50 to 75	50 to 250	< 50	50 to 75					CC(c1cc(Oc2c(Cl)cc(-n3nc(N)c(=O)[nH]c3=O)cc2Cl)n[nH]c1=O)C1CC(F)(F)C1 (single isomer, unassigned) [Compound 61-A, 6-amino-2-[3,5-dichloro-4-([5-[1-(3,3-difluorocyclobutyl)ethyl]-6-oxo-1H-pyridazin-3-yl]oxy)phenyl]-4H-1,2,4-tri-azine-3,5-dione]
	< 50	< 50				A (Emax≥75%)	B (Emax≥50%, and <75%)	CCC(C)c1cc(Oc2c(Cl)cc(-n3nc(N)c(=O)[nH]c3=O)cc2Cl)n[nH]c1=O (centres unmarked) [Compound 39-B]
> 75	< 50	< 50	> 75					Cc1cc(-n2nc(N)c(=O)[nH]c2=O)cc(C)c1Cc1ccc(O)c(-c2ccccc2)n1 [Compound 43, 6-amino-2-[4-[(5-hydroxy-6-phenylpyridin-2-yl)-methyl]-3,5-dimethylphenyl]-4H-1,2,4-triazine-3,5-dione]
50 to 75	< 50	< 50	50 to 75					Cc1cc(-n2ncc(=O)[nH]c2=O)cc(C)c1Cc1ccc2[nH]cc(C(C)C)c2n1 [Compound 54, 2-[4-[(3-isopropyl-1H-pyrrolo[3,2-b]pyridine-5-yl)methyl]-3,5-dimethyl-phenyl]-1,2,4-triazine-3,5-dione]
50 to 75	50 to 250	< 50	< 50					Cc1cccc(-c2cc(Oc3c(Cl)cc(-n4nc(N)c(=O)[nH]c4=O)cc3Cl)n[nH]c2=O)c1 [Compound 70, 6-Amino-2-(3,5-dichloro-4-((6-oxo-5-(m-tolyl)-1,6-dihydropyridazin-3-yl)oxy)phenyl)-1,2,4-triazine-3,5(2H,4H)-dione]
> 75	50 to 250	< 50	50 to 75					Cc1cc(-n2nc(N)c(=O)[nH]c2=O)cc(C)c1Cc1ccc2[nH]cc(C(C)C)c2n1 [Compound 55, 6-amino-2-[4-[(3-isopropyl-1H-pyrrolo[3,2-b]pyridin-5-yl)methyl]-3,5-dimethyl-phenyl]-1,2,4-triazine-3,5-dione]
